# Molecular target: SMARCA2 (Homo sapiens, UniProt P51531)
# Experiment: SMARCA2 Western blot MV4-11 degradation
# Format: cell-based
# Design: SMARCA2 and SMARCA4 protein degradation in MV4-11 cells; endogenous in cells; host or cells: MV4-11
# Conditions: for Dmax: MV4-11, MV4-11 cells, read-out: SMARCA2 MSD MV411 degradation 24 h: average Dmax %; for Dmax / DC50: 24 h; for DC50 / SMARCA2 MSD MV411 degradation 24 h: average Dmax %: MV4-11 cells; for DC50: read-out: SMARCA2 MSD MV411 degradation 24 h: Mean external-Abs DC50
# Protocol: Example 54. SMARCA2 and SMARCA 4 Western Blot MV4-11 Degradation
# Cells were seeded into 6-well plates (MV4-11: 4×10^6 cells/well/1 ml) and 1 ml of 2× compound solution was added into the well to make the final concentration and the plates were mixed well and incubated for 24 hours (No cytotoxicity was observed). The cell were collected with media and spun at 3000 rpm for 5 minutes. The supernatant was aspirated and the well and the cells were washed with cold PBS once and combined for centrifugation again; the supernatant aspirated again. 200 ul pre-chilled RIPA lysis buffer (Boston BioProducts BP-115D) with protease/phosphatase inhibitor (Roche 05892791001/Roche 04906837001) was directly added into the tube to lyze the cells for 20 minutes on ice. The cell lysate were collected into EP tubes and spun at 13000 rpm for 20 minutes and 72 ul supernatant was transferred to a fresh EP tube containing 18 ul of 5× loading buffer (Beyotime Bio P0015) to make the loading samples. The samples were heated to 100° C. for 10 minutes and cooled to RT and microcentrifuged. 20 ul of samples were loaded onto SDS-PAGE gel (Novex, WG1402BOX) and the gel was run at 80 V for 20 minutes and 120 V for 1.5 hours. The samples were electrotransfer to a NC membrane using wet-transfer method with 250 mA for 2.5 hours. The membrane was blocked with LICOR blocking buffer (LI-COR, 927-50000) for 1 hour. The membrane was washed three times with TBST (CST #9997S), 5 minutes each. Incubation was performed with primary antibody prepared in blocking buffer with 0.1% Tween-20 (Solarbio, P8220) at 4° C. overnight (Anti-SMARCA2/BRM antibody (ab15597) 1:500; Anti-BRG1 antibody [EPR3912] (ab108318) 1:1000; Rabbit anti-Baf180 antibody [EPR15860] (Abcam, ab196022) 1:1000; mouse anti-beta-Actin (8H10D10) (CST #3700) 1:10000). The membrane was washed three times with TBST, 5 minutes each. Incubation with secondary antibody was performed for 1 hour at RT (anti-rabbit IgG (Licor, 926-32211) 1:5000; anti-mouse IgG (LI-COR, 926-68070) 1:5000). The membrane was washed three times with TBST, 5 minutes each and lastly the LiCOR was read.
# The letter codes for SMARCA degradation potency (DC50) include: A (<100 nM), B (100-500 nM), C (501-1000 nM), and D (>1000 nM). The letter codes for the percentage of SMARCA degradation after 24 hours (Dmax %) include: A (>90% degradation), B (>70-90% degradation), C (50-70% degradation), and D (<50% degradation).
# Sequence of SMARCA2 (P51531 whole entry): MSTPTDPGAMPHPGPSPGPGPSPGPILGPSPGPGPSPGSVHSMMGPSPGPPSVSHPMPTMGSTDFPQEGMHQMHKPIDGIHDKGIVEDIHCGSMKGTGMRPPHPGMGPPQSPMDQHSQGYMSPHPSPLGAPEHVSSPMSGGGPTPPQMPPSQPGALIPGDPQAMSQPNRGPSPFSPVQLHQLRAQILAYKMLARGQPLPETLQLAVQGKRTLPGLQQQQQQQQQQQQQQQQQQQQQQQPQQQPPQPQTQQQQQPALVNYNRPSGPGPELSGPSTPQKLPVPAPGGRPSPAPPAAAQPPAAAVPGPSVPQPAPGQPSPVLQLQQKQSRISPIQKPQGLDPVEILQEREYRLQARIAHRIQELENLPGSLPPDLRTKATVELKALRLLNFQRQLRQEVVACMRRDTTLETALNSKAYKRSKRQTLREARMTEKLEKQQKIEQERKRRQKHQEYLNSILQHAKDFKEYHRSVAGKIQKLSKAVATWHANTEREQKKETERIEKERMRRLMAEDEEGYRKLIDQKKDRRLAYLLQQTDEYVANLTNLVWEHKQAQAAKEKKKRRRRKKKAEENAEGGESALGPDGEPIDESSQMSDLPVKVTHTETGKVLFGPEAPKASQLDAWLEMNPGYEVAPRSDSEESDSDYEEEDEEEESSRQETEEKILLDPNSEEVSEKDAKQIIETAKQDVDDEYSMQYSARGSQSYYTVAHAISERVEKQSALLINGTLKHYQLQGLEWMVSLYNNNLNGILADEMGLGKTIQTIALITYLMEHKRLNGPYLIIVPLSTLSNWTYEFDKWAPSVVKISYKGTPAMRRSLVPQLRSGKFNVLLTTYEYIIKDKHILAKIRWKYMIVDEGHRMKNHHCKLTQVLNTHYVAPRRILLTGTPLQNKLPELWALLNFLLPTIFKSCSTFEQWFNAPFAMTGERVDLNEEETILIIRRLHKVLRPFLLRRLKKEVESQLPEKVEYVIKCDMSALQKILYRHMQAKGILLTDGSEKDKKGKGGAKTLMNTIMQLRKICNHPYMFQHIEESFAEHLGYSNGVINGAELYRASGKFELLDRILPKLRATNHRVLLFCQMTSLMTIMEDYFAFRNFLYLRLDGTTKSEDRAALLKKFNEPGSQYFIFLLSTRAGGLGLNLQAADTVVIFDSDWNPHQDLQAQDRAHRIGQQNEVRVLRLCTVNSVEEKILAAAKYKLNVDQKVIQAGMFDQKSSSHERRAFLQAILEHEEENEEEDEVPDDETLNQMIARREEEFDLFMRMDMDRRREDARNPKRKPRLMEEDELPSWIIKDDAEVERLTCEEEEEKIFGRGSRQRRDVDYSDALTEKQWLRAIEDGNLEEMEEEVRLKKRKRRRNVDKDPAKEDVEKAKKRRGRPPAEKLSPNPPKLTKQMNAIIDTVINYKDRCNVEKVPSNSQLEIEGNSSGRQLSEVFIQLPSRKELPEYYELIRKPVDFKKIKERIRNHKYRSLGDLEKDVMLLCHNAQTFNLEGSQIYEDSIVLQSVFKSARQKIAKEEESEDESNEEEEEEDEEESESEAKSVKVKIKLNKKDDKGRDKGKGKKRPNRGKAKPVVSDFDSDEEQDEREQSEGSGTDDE
Compound,Dmax [%],DC50 [µM],SMARCA2 MSD MV411 degradation 24 h: average Dmax %
"Cc1cc(C(C(=O)N2C[C@H](O)C[C@H]2C(=O)NCc2ccc(-c3scnc3C)cc2)C(C)CCN2CCC(c3cnc(N4C5CCC4CN(c4cc(-c6ccccc6O)nnc4N)C5)nc3)CC2)on1 (single isomer, unassigned) [I-45]",> 90,< 0.1,–
"Cc1cc(C(C(=O)N2C[C@H](O)C[C@H]2C(=O)NCc2ccc(-c3scnc3C)cc2)C(C)CCN2CCC(c3cnc(N4C5CCC4CN(c4cc(-c6ccccc6O)nnc4N)C5)nc3)CC2)on1 (single isomer, unassigned) [I-46]",–,< 0.1,B (B (>70-90% degradation))
"Cc1cc(C(C(=O)N2C[C@H](O)C[C@H]2C(=O)NCc2ccc(-c3scnc3C)cc2)C(C)CCN2CCC(c3cnc(N4C5CCC4CN(c4cc(-c6ccccc6O)nnc4N)C5)nc3)CC2)on1 (stereo partly drawn) [I-44, (2S,4R)-1-(5-(4-(2-(3-(3-amino-6-(2-hydroxyphenyl)pyridazin-4-yl)-3,8-diazabicyclo[3.2.1]octan-8-yl)pyrimidin-5-yl)piperidin-1-yl)-3-methyl-2-(3-methylisoxazol-5-yl)pentanoyl)-4-hydroxy-N-(4-(4-methylthiazol-5-yl)benzyl)pyrrolidine-2-carboxamide]",70 to 90,< 0.1,–
"Cc1ncsc1-c1ccc(CNC(=O)[C@@H]2C[C@@H](O)CN2C(=O)[C@@H](c2cc(N3CCC(N4CCC(c5cnc(N6C7CCC6CN(c6cc(-c8ccccc8O)nnc6N)C7)nc5)CC4)CC3)no2)C(C)C)cc1 [I-49, (2S,4R)-1-(2-(3-(4-(2-(3-(3-amino-6-(2-hydroxyphenyl)pyridazin-4-yl)-3,8-diazabicyclo[3.2.1]octan-8-yl)pyrimidin-5-yl)-[1,4′-bipiperidin]-1′-yl)isoxazol-5-yl)-3-methylbutanoyl)-4-hydroxy-N-(4-(4-methylthiazol-5-yl)benzyl)pyrrolidine-2-carboxamide]",> 90,< 0.1,–
Cc1ncsc1-c1ccc(CNC(=O)[C@@H]2C[C@@H](O)CN2C(=O)[C@@H](c2cc(OCCCCN3CCC(c4cnc(N5C6CCC5CN(c5cc(-c7ccccc7O)nnc5N)C6)nc4)CC3)no2)C(C)C)cc1 [I-56],–,< 0.1,B (B (>70-90% degradation))
Cc1ncsc1-c1ccc(CNC(=O)[C@@H]2C[C@@H](O)CN2C(=O)[C@H](c2cc(OCCCCN3CCC(c4cnc(N5C6CCC5CN(c5cc(-c7ccccc7O)nnc5N)C6)nc4)CC3)no2)C(C)C)cc1 [I-57],> 90,< 0.1,–
"Cc1ncsc1-c1ccc(CNC(=O)[C@@H]2C[C@@H](O)CN2C(=O)[C@@H](c2cc(N3CCC(CCN4CCC(c5cnc(N6C7CCC6CN(c6cc(-c8ccccc8O)nnc6N)C7)nc5)CC4)CC3)no2)C(C)C)cc1 [I-62, (2S,4R)-1-((2R)-2-(3-(4-(2-(4-(2-(3-(3-amino-6-(2-hydroxyphenyl)pyridazin-4-yl)-3,8-diazabicyclo[3.2.1]octan-8-yl)pyrimidin-5-yl)piperidin-1-yl)ethyl)piperidin-1-yl)isoxazol-5-yl)-3-methylbutanoyl)-4-hydroxy-N-(4-(4-methylthiazol-5-yl)benzyl)pyrrolidine-2-carboxamide]",50 to 70,0.1 to 0.5,–
"Cc1ncsc1-c1ccc(CNC(=O)[C@@H]2C[C@@H](O)CN2C(=O)[C@H](c2cc(N3CCC(CCN4CCC(c5cnc(N6C7CCC6CN(c6cc(-c8ccccc8O)nnc6N)C7)nc5)CC4)CC3)no2)C(C)C)cc1 [I-63, (2S,4R)-1-((2S)-2-(3-(4-(2-(4-(2-(3-(3-amino-6-(2-hydroxyphenyl)pyridazin-4-yl)-3,8-diazabicyclo[3.2.1]octan-8-yl)pyrimidin-5-yl)piperidin-1-yl)ethyl)piperidin-1-yl)isoxazol-5-yl)-3-methylbutanoyl)-4-hydroxy-N-(4-(4-methylthiazol-5-yl)benzyl)pyrrolidine-2-carboxamide]",> 90,< 0.1,–
"Cc1ncsc1-c1ccc(CNC(=O)[C@@H]2C[C@@H](O)CN2C(=O)[C@@H](NC(=O)C2CC3(C2)CC(N2CCC(c4cnc(N5CCN(c6cc(-c7ccccc7O)nnc6N)CC5)nc4)CC2)C3)C(C)(C)C)cc1 (stereo partly drawn) [I-65, (2S,4R)-1-((S)-2-(6-(4-(2-(4-(3-amino-6-(2-hydroxyphenyl)pyridazin-4-yl)piperazin-1-yl)pyrimidin-5-yl)piperidin-1-yl)spiro[3.3]heptane-2-carboxamido)-3,3-dimethylbutanoyl)-4-hydroxy-N-(4-(4-methylthiazol-5-yl)benzyl)pyrrolidine-2-carboxamide]",50 to 70,< 0.1,–
"Cc1ncsc1-c1ccc(CNC(=O)[C@@H]2C[C@@H](O)CN2C(=O)[C@@H](NC(=O)C2(F)CC2)C(C)(C)C)c(OC2CCC(N3CCC(c4cnc(N5C6CC[C@@H]5CN(c5cc(-c7ccccc7O)nnc5N)C6)nc4)CC3)CC2)c1 (stereo partly drawn) [I-71, (2S,4R)—N-(2-(((1r,4S)-4-(4-(2-(3-(3-amino-6-(2-hydroxyphenyl)pyridazin-4-yl)-3,8-diazabicyclo[3.2.1]octan-8-yl)pyrimidin-5-yl)piperidin-1-yl)cyclohexyl)oxy)-4-(4-methylthiazol-5-yl)benzyl)-1-((S)-2-(1-fluorocyclopropanecarboxamido)-3,3-dimethylbutanoyl)-4-hydroxypyrrolidine-2-carboxamide]",–,< 0.1,B (B (>70-90% degradation))
Cc1ncsc1-c1ccc(CNC(=O)[C@@H]2C[C@@H](O)CN2C(=O)[C@@H](NC(=O)C2(F)CC2)C(C)(C)C)c(OCCCCN2CCC(c3cnc(N4C5CCC4CN(c4cc(-c6ccccc6O)nnc4N)C5)nc3)CC2)c1 [I-74],70 to 90,< 0.1,–
"Cc1ncsc1-c1ccc(CNC(=O)[C@@H]2C[C@@H](O)CN2C(=O)[C@@H](NC(=O)C2(F)CC2)C(C)(C)C)c(OCCCCCCN2CCC(c3cnc(N4C5CCC4CN(c4cc(-c6ccccc6O)nnc4N)C5)nc3)CC2)c1 [I-75, (2S,4R)—N-(2-((6-(4-(2-(3-(3-amino-6-(2-hydroxyphenyl)pyridazin-4-yl)-3,8-diazabicyclo[3.2.1]octan-8-yl)pyrimidin-5-yl)piperidin-1-yl)hexyl)oxy)-4-(4-methylthiazol-5-yl)benzyl)-1-((S)-2-(1-fluorocyclopropanecarboxamido)-3,3-dimethylbutanoyl)-4-hydroxypyrrolidine-2-carboxamide]",70 to 90,< 0.1,–
"Cc1ncsc1-c1ccc(CNC(=O)[C@@H]2C[C@@H](O)CN2C(=O)[C@@H](NC(=O)CN2C3CCC2CN([C@H]2CC[C@@H](c4cnc(N5C6CCC5CN(c5cc(-c7ccccc7O)nnc5N)C6)nc4)CC2)C3)C(C)(C)C)cc1 [I-77, (2S,4R)-1-((2S)-2-(2-(3-((1s,4R)-4-(2-(3-(3-amino-6-(2-hydroxyphenyl)pyridazin-4-yl)-3,8-diazabicyclo[3.2.1]octan-8-yl)pyrimidin-5-yl)cyclohexyl)-3,8-diazabicyclo[3.2.1]octan-8-yl)acetamido)-3,3-dimethylbutanoyl)-4-hydroxy-N-(4-(4-methylthiazol-5-yl)benzyl)pyrrolidine-2-carboxamide]",70 to 90,< 0.1,–

# Source: patent US12606568B2, “SMARCA degraders and uses thereof” (Kymera Therapeutics, Inc., priority 2020, dated 2026)
